From patent US20220133833A1, “USE OF GRAPE AND/OR SOY SUPPLEMENTS AGAINST COVID-19 AND 92 OTHER VIRUSES AND BACTERIA INCLUDING OTHER UNKNOWN VIRUSES AND BACTERIA” (priority 2020, published 2022)
Read-outs that look alike come from different tables or passages of the source.

Test system: H1N1 virus
[1] = one-week preventive treatment, 0.2 ml/0.4 ml/mouse iv/ip QD, till the end of the study

Substance: APOA-1 [RAAS-2]
- prevention of the Bird Flu Epidemiology in Mice (mice, H1N1): 100%
- protection from body weight loss [1]: totally protected
- protection from death [1]: totally protected
- protection of body weight loss compared with oseltamivir treatment (preventive treatment): even better than that by oseltamivir treatment
- adverse finding / tolerance (therapeutic group (G2), some of the mice, day 5 post H1N1 challenge and afterward): haematuria
- protection from body weight loss (therapeutic treatment, 0.2 ml/0.4 ml iv/ip QD, all 5 mice, days 2 to 5 post H1N1 infection): partial
- mice protected from death (therapeutic treatment, 0.2 ml/0.4 ml iv/ip QD, group of 5 mice): one mouse out of 5 mice
